Experimental data from patent US20250230193A1, “CYCLIC COMPOUND HAVING SELECTIVE KRAS INHIBITORY EFFECT ON HRAS AND NRAS” (CHUGAI SEIYAKU KABUSHIKI KAISHA, priority 2022, published 2025).
Where a SMILES comes first, the peptide text is derived from it. Bridges are numbered along the chain shown (N, C = ends). [ ]: non-standard residue; d: D form. The star is where a group is joined. hPhe(3,5-F2-4-CF3) = N[C@@H](CCc1cc(F)c(C(F)(F)F)c(F)c1)C(=O)O; NPrPhe(4-CF3) = CCCN[C@@H](Cc1ccc(C(F)(F)F)cc1)C(=O)O; NMeGly(cPent) = CN[C@H](C(=O)O)C1CCCC1; αMeCha = C[C@](N)(CC1CCCCC1)C(=O)O; NMeD = CN[C@@H](CC(=O)O)C(=O)O; NMeL = CN[C@@H](CC(C)C)C(=O)O; Morpholide = C1CN(*)CCO1; Aze = O=C(O)[C@@H]1CCN1; Sar = CNCC(=O)O

Tests used:
[1] = biological target: GDP-bound NRAS wild-type protein (Homo sapiens, UniProt P01111); test: Binding to NRAS by surface plasmon resonance (SPR), Single Cycle Kinetics; conditions: for NRAS/KRAS (ratio of KD value with respect to NRAS to KD value with respect to KRAS) / NRAS/KRAS (ratio of KD value for NRAS to KD value for KRAS): GDP-bound NRAS wild-type vs GDP-bound KRAS wild-type
[2] = biological target: GDP-bound HRAS wild-type protein (Homo sapiens, UniProt P01112); test: Binding to HRAS by surface plasmon resonance (SPR), Single Cycle Kinetics; conditions: for HRAS/KRAS (ratio of KD value with respect to HRAS to KD value with respect to KRAS) / HRAS/KRAS (ratio of KD value for HRAS to KD value for KRAS): GDP-bound HRAS wild-type vs GDP-bound KRAS wild-type
Chain of GDP-bound HRAS wild-type protein (P01112 whole entry): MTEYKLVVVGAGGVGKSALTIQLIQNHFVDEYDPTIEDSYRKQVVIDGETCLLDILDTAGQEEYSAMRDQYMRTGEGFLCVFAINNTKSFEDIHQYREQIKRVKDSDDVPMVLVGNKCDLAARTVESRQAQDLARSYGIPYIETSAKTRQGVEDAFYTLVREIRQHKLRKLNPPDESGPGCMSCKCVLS

Chain of GDP-bound NRAS wild-type protein (P01111 whole entry): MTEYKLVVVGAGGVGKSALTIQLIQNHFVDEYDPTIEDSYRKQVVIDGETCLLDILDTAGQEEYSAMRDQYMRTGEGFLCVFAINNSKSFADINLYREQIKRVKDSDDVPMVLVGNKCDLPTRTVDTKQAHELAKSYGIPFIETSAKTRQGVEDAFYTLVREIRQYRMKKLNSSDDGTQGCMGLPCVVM

With CC[C@H](C)[C@@H]1NC(=O)[C@H](CC(C)C)N(C)C(=O)C[C@@H](C(=O)N2CCOCC2)N(C)C(=O)[C@H](C2CCCC2)N(C)C(=O)C2(CCC2)NC(=O)[C@@H]2[C@H]3C[C@H]3CN2C(=O)[C@H](CCc2cc(F)c(C(F)(F)F)c(F)c2)NC(=O)CN(C)C(=O)[C@H](Cc2ccc(C(F)(F)F)cc2)N2CCCC[C@@H](C2=O)N(C)C(=O)CN(C)C1=O [PP0810] the “NRAS/KRAS (ratio of KD value with respect to NRAS to KD value with respect to KRAS)” value ([1]; KD ratio, SPR) was “B (a compound having 3 or more and less than 10 is denoted as B)” and the “HRAS/KRAS (ratio of KD value with respect to HRAS to KD value with respect to KRAS)” value ([2]; KD ratio, SPR) was “B (a compound having 3 or more and less than 10 is denoted as B)”.

With CCO[C@@H]1C[C@H]2C(=O)NC3(CCC3)C(=O)N(C)[C@@H](C3CCCC3)C(=O)N(C)[C@H](C(=O)N3CCOCC3)CC(=O)N(C)[C@@H](Cc3ccc(Cl)c(Cl)c3)C(=O)N[C@@H]([C@@H](C)CC)C(=O)N(C)CC(=O)N(C)[C@H]3CCCCCN(C3=O)[C@@H](Cc3ccc(C(F)(F)F)cc3)C(=O)N(C)CC(=O)N[C@@H](CCc3cc(F)c(C(F)(F)F)c(F)c3)C(=O)N2C1 [PP1168] the “NRAS/KRAS (ratio of KD value with respect to NRAS to KD value with respect to KRAS)” value ([1]; KD ratio, SPR) was “A (a compound having 10 or more and less than 20 is denoted as A)” and the “HRAS/KRAS (ratio of KD value with respect to HRAS to KD value with respect to KRAS)” value ([2]; KD ratio, SPR) was “A (a compound having 10 or more and less than 20 is denoted as A)”.

CCCN1C(=O)[C@@H]2CCN2C(=O)CN(C)C(=O)[C@H]([C@@H](C)CC)NC(=O)[C@H](CC(C)C)N(C)C(=O)C[C@@H](C(=O)N2CCOCC2)N(C)C(=O)[C@H](C2CCCC2)N(C)C(=O)[C@](C)(CC2CCCCC2)NC(=O)[C@@H]2CCCN2C(=O)[C@H](CCc2cc(F)c(C(F)(F)F)c(F)c2)NC(=O)CN(C)C(=O)[C@@H]1Cc1ccc(C(F)(F)F)cc1 [PP0796] ([NMeL]I[Sar][Aze][NPrPhe(4-CF3)][Sar][hPhe(3,5-F2-4-CF3)]P[αMeCha][NMeGly(cPent)][NMeD]-Morpholide; lactam N-11) was tested, and the “NRAS/KRAS (ratio of KD value with respect to GDP-bound NRAS wild-type protein to KD value with respect to KRAS)” value ([1]; SPR) was “C (A compound having a KD ratio of 0.1 or more and less than 3 is denoted as C)” and the “HRAS/KRAS (ratio of KD value with respect to GDP-bound HRAS wild-type protein to KD value with respect to KRAS)” value ([2]; SPR) was “B (a compound having 3 or more and less than 10 is denoted as B)”.

In the case of CC[C@H](C)[C@@H]1NC(=O)[C@H](CC(C)C)N(C)C(=O)C[C@@H](C(=O)N2CCOCC2)N(C)C(=O)[C@H](C2CCCC2)N(C)C(=O)C2(CCCC2)NC(=O)[C@@H]2C[C@H](OC)CN2C(=O)[C@H](CCc2cc(F)c(C(F)(F)F)c(F)c2)NC(=O)CN(C)C(=O)[C@H](Cc2ccc(C(F)(F)F)cc2)N2CCCCC[C@@H](C2=O)N(C)C(=O)CN(C)C1=O [PP0495], the “NRAS/KRAS (ratio of KD value with respect to GDP-bound NRAS wild-type protein to KD value with respect to KRAS)” value ([1]; SPR) was “A (a compound having 10 or more and less than 20 is denoted as A)” and the “HRAS/KRAS (ratio of KD value with respect to GDP-bound HRAS wild-type protein to KD value with respect to KRAS)” value ([2]; SPR) was “B (a compound having 3 or more and less than 10 is denoted as B)”.

CCC(CC)[C@H]1C(=O)N(C)[C@H](C(=O)N(C)C)CC(=O)N(C)[C@@H](COC)C(=O)N[C@@H]([C@@H](C)CC)C(=O)N(C2CC2)CC(=O)N(C)[C@H]2C/C=C\CCN(C2=O)[C@@H](CC2CCC(F)(F)CC2)C(=O)N(C)CC(=O)N[C@@H](CCc2ccc(Cl)c(Cl)c2)C(=O)N2C[C@H](OC(C)C)C[C@H]2C(=O)NC2(CC(C)(C)C2)C(=O)N1C [PP2525] was tested, and the “NRAS/KRAS (ratio of KD value with respect to GDP-bound NRAS wild-type protein to KD value with respect to KRAS)” value ([1]; class symbols) was “AA (a compound having 20 or more is denoted as AA)” and the “HRAS/KRAS (ratio of KD value with respect to GDP-bound HRAS wild-type protein to KD value with respect to KRAS)” value ([2]; class symbols) was “A (a compound having 10 or more and less than 20 is denoted as A)”.

CC[C@H](C)[C@@H]1NC(=O)[C@H](CC(C)C)N(C)C(=O)C[C@@H](C(=O)N2CCOCC2)N(C)C(=O)[C@H](C2CCCC2)N(C)C(=O)C2(CCC2)NC(=O)[C@@H]2[C@@H](OCC3CCCC3)CCN2C(=O)[C@H](CCc2cc(F)c(C(F)(F)F)c(F)c2)NC(=O)CN(C)C(=O)[C@H](Cc2ccc(C(F)(F)F)cc2)N2CCCCC[C@@H](C2=O)N(C)C(=O)CN(C)C1=O [PP1011] was tested, and the “NRAS/KRAS (ratio of KD value with respect to NRAS to KD value with respect to KRAS)” value ([1]; KD ratio, SPR) was “A (a compound having 10 or more and less than 20 is denoted as A)” and the “HRAS/KRAS (ratio of KD value with respect to HRAS to KD value with respect to KRAS)” value ([2]; KD ratio, SPR) was “B (a compound having 3 or more and less than 10 is denoted as B)”.

For CCO[C@@H]1C[C@H]2C(=O)NC3(CCC3)C(=O)N(C)[C@@H](C(CC)CC)C(=O)N(C)[C@H](C(=O)N3CCOCC3)CC(=O)N(C)[C@@H](CC(C)C)C(=O)N[C@@H]([C@@H](C)CC)C(=O)N(C)CC(=O)N(C)[C@H]3CCCCN(C3=O)[C@@H](Cc3ccc(C(F)(F)F)cc3)C(=O)N(C)CC(=O)N[C@@H](CCc3cc(F)c(C(F)(F)F)c(F)c3)C(=O)N2C1 [PP0811], the “NRAS/KRAS (ratio of KD value with respect to NRAS to KD value with respect to KRAS)” value ([1]; KD ratio, SPR) was “B (a compound having 3 or more and less than 10 is denoted as B)” and the “HRAS/KRAS (ratio of KD value with respect to HRAS to KD value with respect to KRAS)” value ([2]; KD ratio, SPR) was “B (a compound having 3 or more and less than 10 is denoted as B)”.

In the case of CCO[C@@H]1C[C@H]2C(=O)NC3(CC(C)(C)C3)C(=O)N(C)[C@@H](C3CCCC3)C(=O)N(C)[C@H](C(=O)N(C)CC)CC(=O)N(C)[C@@H](C3CCC3)C(=O)N[C@@H]([C@@H](C)CC)C(=O)N(C)CC(=O)N(C)[C@H]3C/C=C\CCN(C3=O)[C@@H](Cc3ccc(C(F)(F)F)cc3)C(=O)N(C)CC(=O)N[C@@H](CCc3cc(F)c(C(F)(F)F)c(F)c3)C(=O)N2C1 [PP2038], the “NRAS/KRAS (ratio of KD value with respect to NRAS to KD value with respect to KRAS)” value ([1]; SPR) was “A (a compound having 10 or more and less than 20 is denoted as A)” and the “HRAS/KRAS (ratio of KD value with respect to HRAS to KD value with respect to KRAS)” value ([2]; SPR) was “A (a compound having 10 or more and less than 20 is denoted as A)”.

In the case of CC[C@H](C)[C@@H]1NC(=O)[C@H](CC)N(C)C(=O)C[C@@H](C(=O)N(C)C)N(C)C(=O)[C@H](C2CCCC2)N(C)C(=O)C2(CCC2)NC(=O)[C@@H]2C[C@@H](F)CN2C(=O)[C@H](CCc2cc(F)c(C(F)(F)F)c(F)c2)NC(=O)CN(C)C(=O)[C@H](Cc2ccc(C(F)(F)F)cc2)N2CC/C=C\C[C@@H](C2=O)N(C)C(=O)CN(C)C1=O [PP1131], the “NRAS/KRAS (ratio of KD value with respect to NRAS to KD value with respect to KRAS)” value ([1]; KD ratio, SPR) was “A (a compound having 10 or more and less than 20 is denoted as A)” and the “HRAS/KRAS (ratio of KD value with respect to HRAS to KD value with respect to KRAS)” value ([2]; KD ratio, SPR) was “B (a compound having 3 or more and less than 10 is denoted as B)”.

With CCC[C@H]1C(=O)N[C@@H]([C@@H](C)CC)C(=O)N(C)CC(=O)N(C)[C@H]2C/C=C\CCN(C2=O)[C@@H](Cc2ccc(C(F)(F)F)cc2)C(=O)N(C)CC(=O)N[C@@H](CCc2cc(F)c(C(F)(F)F)c(F)c2)C(=O)N(CC)CC(=O)NC2(CC(C)(C)C2)C(=O)N(C)[C@@H](C2CCCC2)C(=O)N(C)[C@H](C(=O)N(C)C)CC(=O)N1C [PP1777] the “NRAS/KRAS (ratio of KD value for NRAS to KD value for KRAS)” value ([1]; KD ratio, SPR) was “A (a compound having 10 or more and less than 20 is denoted as A)” and the “HRAS/KRAS (ratio of KD value for HRAS to KD value for KRAS)” value ([2]; KD ratio, SPR) was “B (a compound having 3 or more and less than 10 is denoted as B)”.

With CCCN(C)C(=O)[C@@H]1CC(=O)N(C)[C@@H](CC)C(=O)N[C@@H]([C@@H](C)CC)C(=O)N(C)CC(=O)N(C)[C@H]2C/C=C\CCN(C2=O)[C@@H](Cc2ccc(C(F)(F)F)cc2)C(=O)N(C)CC(=O)N[C@@H](CCc2cc(F)c(C(F)(F)F)c(F)c2)C(=O)N2C[C@H](OCC)C[C@H]2C(=O)NC2(CCC2)C(=O)N(C)[C@@H](C2CCCC2)C(=O)N1C [PP1699] the “NRAS/KRAS (ratio of KD value for NRAS to KD value for KRAS)” value ([1]; KD ratio, SPR) was “A (a compound having 10 or more and less than 20 is denoted as A)” and the “HRAS/KRAS (ratio of KD value for HRAS to KD value for KRAS)” value ([2]; KD ratio, SPR) was “A (a compound having 10 or more and less than 20 is denoted as A)”.
